Source: patent US20230044958A1, “METHOD OF TREATING VIRUS INFECTION USING A TLR7 AGONIST” (Hoffmann-La Roche Inc., priority 2019, published 2023)

Assays:
HBV [1] = conditions: cited from earlier work
[2] = Safety and tolerability of Compound (I) in chronic hepatitis B patients; format: in vivo, human
Source text: (§1) In this invention, methods of the entire treatment comprising Compound (I) monotherapy or Compound (I) in combination with other anti-HBV drug(s) for 24-120 weeks were developed.

HBV [3] = assay: Treatment of HBV-infected patients with Compound (I), alone or in combination; format: in vivo, human
Source text: as §1
Furthermore, treatment method of Compound (I) in combination with other anti-HBV drugs results in significant hepatitis B surface antigen (HBsAg) decline or loss. […] However, the method of treatment of this invention with Compound (I) can also induce robust HBV DNA and HBV RNA decline in such patients.

[4] = patients under the treatment methods of the invention

Compound	HBsAg decline (HBV [1]; weekly dosing for 4, 8, 12 weeks, virally suppressed patients with chronic hepatitis B)	change in HBsAg after treatment (HBV [1]; weekly dosing for 12 weeks in combination with tenofovir disoproxil fumarate, viremic CHB patients not on oral antiviral treatment)	safety and tolerability [2]	hepatitis B surface antigen (HBsAg) decline or loss (HBV [3]; Compound (I) in combination with other anti-HBV drugs)	HBV DNA decline (HBV [3]; [4])	HBV RNA decline (HBV [3]; [4])
CCCCOc1nc(N)c2c(n1)N(Cc1cccc(CN3CCCC3)c1)CC(=O)N2 [Vesatolimod]	did not show HBsAg decline	did not demonstrate any meaningful change in HBsAg				
CC[C@H](OC(C)=O)[C@@H]1C[C@@H](O)[C@H](n2c(=O)sc3cnc(N)nc32)O1 [Compound (I), (1S)-1-[(2S,4R,5R)-5-(5-amino-2-oxo-thiazolo[4,5-d]pyrimidin-3-yl)-4-hydroxy-tetrahydrofuran-2-yl]propyl] acetate]			safe and well tolerated	significant	robust	robust
